Assays:
[1] = target: Myosin light chain kinase 2, skeletal/cardiac muscle (Homo sapiens) (UniProt Q9H1R3); settings: Compound concentration 1000.0 nM
[2] = target: Rho-associated protein kinase 2 (Homo sapiens) (UniProt O75116); settings: Compound concentration 1000.0 nM
[3] = target: High affinity nerve growth factor receptor (Homo sapiens) (UniProt P04629); settings: Compound concentration 1000.0 nM
[4] = target: Ribosomal protein S6 kinase alpha-4 (Homo sapiens) (UniProt O75676); settings: Compound concentration 1000.0 nM
[5] = target: Calcium/calmodulin-dependent protein kinase type 1 (Homo sapiens) (UniProt Q14012); settings: Compound concentration 1000.0 nM
Sequence of Calcium/calmodulin-dependent protein kinase type 1 (Homo sapiens) (Q14012 whole entry, looked up): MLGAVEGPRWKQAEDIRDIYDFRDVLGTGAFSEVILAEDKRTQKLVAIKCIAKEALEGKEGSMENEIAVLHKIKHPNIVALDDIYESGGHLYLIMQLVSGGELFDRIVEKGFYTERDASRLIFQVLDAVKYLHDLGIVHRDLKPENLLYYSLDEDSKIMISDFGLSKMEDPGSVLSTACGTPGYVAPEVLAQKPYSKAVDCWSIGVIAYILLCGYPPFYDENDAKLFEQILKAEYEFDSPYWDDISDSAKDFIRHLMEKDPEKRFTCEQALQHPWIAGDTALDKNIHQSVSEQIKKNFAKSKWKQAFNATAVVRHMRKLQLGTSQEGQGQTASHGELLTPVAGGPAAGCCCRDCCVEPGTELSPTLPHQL

[6] = target: T1, Megakaryocyte-associated tyrosine-protein kinase (Homo sapiens) (UniProt P42679); settings: Compound concentration 1000.0 nM
T1 sequence (whole entry): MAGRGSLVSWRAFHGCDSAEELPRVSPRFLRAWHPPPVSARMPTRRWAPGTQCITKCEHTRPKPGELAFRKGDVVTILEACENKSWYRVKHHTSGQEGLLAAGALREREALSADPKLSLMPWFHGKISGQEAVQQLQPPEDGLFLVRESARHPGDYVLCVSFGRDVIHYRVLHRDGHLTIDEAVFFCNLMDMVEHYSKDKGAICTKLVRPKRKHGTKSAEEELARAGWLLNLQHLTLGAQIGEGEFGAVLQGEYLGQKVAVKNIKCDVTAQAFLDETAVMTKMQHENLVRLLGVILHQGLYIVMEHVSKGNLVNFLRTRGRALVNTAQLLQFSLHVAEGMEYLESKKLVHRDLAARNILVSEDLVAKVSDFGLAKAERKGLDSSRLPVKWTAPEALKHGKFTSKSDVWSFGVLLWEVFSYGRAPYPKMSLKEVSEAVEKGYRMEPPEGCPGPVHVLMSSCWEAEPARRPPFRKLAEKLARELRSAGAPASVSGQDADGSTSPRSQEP

[7] = target: T2, 5-hydroxytryptamine receptor 2C (Homo sapiens) (UniProt P28335); settings: Compound concentration 10.0 uM
T2 sequence (whole entry): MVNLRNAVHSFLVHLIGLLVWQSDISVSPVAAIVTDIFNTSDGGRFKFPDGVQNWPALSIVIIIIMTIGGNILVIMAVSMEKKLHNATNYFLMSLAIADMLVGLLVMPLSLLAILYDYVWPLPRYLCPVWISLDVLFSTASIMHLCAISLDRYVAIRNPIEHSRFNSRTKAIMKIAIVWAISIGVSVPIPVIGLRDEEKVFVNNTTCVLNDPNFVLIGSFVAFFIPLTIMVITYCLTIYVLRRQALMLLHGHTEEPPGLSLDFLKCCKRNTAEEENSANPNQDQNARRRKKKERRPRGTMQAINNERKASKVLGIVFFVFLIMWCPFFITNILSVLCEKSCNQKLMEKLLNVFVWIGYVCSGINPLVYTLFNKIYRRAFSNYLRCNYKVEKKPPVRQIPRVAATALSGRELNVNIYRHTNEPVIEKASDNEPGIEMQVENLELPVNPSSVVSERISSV

[8] = target: Phosphatidylinositol 3-kinase catalytic subunit type 3 (Homo sapiens) (UniProt Q8NEB9); settings: Compound concentration 1000.0 nM
[9] = target: Serine/threonine-protein kinase STK11 (Homo sapiens) (UniProt Q15831); settings: Compound concentration 1000.0 nM
Sequence of Serine/threonine-protein kinase STK11 (Homo sapiens) (Q15831 whole entry): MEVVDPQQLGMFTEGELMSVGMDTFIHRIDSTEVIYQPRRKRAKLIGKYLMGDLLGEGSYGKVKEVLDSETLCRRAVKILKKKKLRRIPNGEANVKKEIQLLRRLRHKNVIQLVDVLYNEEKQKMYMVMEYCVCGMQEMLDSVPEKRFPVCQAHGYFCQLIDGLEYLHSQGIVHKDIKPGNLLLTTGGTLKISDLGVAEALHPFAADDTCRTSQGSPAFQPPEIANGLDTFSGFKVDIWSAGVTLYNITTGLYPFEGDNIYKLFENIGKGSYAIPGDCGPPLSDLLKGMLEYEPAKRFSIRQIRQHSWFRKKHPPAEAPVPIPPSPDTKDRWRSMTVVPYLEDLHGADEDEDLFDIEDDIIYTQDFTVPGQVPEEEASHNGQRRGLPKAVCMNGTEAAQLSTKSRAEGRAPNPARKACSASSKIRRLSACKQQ

[10] = target: Dual serine/threonine and tyrosine protein kinase (Homo sapiens) (UniProt Q6XUX3); settings: Compound concentration 1000.0 nM
Sequence of Dual serine/threonine and tyrosine protein kinase (Homo sapiens) (Q6XUX3 whole entry): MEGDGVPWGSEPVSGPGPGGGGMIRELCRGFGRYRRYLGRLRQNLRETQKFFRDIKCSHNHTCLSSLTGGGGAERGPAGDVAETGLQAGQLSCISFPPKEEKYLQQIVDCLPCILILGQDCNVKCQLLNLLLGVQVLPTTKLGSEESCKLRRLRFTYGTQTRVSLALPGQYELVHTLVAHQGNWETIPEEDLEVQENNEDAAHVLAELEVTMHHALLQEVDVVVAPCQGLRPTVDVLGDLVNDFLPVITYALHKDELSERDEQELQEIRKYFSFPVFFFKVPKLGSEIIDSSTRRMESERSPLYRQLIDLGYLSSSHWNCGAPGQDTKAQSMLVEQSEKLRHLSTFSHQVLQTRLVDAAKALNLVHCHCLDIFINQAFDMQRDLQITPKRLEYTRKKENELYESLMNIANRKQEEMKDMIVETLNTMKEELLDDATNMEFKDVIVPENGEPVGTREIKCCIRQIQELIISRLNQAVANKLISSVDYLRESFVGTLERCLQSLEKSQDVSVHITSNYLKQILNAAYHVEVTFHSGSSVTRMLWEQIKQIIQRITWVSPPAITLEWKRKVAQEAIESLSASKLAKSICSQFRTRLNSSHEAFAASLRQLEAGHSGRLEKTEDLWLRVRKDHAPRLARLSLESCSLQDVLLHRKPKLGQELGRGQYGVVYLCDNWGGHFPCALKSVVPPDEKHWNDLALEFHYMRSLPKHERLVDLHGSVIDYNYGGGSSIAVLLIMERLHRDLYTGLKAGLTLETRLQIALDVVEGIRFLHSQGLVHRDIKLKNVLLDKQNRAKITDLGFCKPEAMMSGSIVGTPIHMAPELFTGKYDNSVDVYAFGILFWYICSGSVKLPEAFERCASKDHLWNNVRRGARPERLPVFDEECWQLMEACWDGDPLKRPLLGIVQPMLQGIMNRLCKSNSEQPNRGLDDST

[11] = target: T3, Activin receptor type-1 (Homo sapiens) (UniProt Q04771); settings: Compound concentration 1000.0 nM
T3 sequence (whole entry): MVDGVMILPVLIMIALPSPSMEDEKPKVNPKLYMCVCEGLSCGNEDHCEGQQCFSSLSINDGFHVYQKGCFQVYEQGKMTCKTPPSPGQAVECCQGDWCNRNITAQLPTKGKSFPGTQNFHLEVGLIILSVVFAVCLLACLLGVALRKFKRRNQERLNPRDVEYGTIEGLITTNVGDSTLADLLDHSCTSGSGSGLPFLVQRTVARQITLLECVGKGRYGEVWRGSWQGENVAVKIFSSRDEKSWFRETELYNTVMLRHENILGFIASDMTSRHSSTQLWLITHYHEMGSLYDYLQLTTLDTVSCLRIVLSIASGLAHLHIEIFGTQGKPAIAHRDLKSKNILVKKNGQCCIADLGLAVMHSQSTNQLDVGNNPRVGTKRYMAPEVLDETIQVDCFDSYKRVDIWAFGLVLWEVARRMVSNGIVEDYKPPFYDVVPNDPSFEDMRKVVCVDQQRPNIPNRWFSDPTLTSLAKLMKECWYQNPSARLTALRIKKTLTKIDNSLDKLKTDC

[12] = target: D(1A) dopamine receptor (Homo sapiens) (UniProt P21728); settings: Compound concentration 10.0 uM
Sequence of D(1A) dopamine receptor (Homo sapiens) (P21728 whole entry): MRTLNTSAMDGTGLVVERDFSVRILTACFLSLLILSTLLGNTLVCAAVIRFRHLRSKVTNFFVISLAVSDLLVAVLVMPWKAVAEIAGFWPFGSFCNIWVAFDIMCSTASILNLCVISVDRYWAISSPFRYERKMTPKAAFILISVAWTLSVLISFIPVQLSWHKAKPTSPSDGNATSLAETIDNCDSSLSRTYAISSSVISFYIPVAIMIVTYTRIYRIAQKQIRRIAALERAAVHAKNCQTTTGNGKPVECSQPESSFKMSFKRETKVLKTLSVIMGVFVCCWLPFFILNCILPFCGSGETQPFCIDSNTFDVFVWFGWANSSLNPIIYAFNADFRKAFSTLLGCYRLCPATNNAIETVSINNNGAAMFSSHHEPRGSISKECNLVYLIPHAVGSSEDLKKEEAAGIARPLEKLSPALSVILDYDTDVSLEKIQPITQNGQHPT

[13] = target: Calcium/calmodulin-dependent protein kinase type II subunit alpha (Homo sapiens) (UniProt Q9UQM7); settings: Compound concentration 1000.0 nM
[14] = target: Tyrosine-protein kinase Srms (Homo sapiens) (UniProt Q9H3Y6); settings: Compound concentration 1000.0 nM
[15] = target: Dual specificity protein kinase CLK4 (Homo sapiens) (UniProt Q9HAZ1); settings: Compound concentration 1000.0 nM
Sequence of Dual specificity protein kinase CLK4 (Homo sapiens) (Q9HAZ1 whole entry, looked up): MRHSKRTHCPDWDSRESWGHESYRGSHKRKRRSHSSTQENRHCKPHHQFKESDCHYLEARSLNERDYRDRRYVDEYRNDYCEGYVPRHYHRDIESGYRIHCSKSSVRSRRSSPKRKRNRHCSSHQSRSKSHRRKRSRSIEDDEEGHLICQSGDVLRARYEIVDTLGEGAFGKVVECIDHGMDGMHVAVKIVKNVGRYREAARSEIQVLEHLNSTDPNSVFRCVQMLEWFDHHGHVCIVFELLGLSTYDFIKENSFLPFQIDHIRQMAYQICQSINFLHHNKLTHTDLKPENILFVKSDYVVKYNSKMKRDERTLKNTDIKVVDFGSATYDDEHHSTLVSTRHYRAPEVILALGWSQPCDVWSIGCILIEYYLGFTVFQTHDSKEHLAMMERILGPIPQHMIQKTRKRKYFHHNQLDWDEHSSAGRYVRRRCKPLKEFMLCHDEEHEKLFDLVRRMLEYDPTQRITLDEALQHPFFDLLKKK

[16] = target: MAP kinase-interacting serine/threonine-protein kinase 1 (Homo sapiens) (UniProt Q9BUB5); settings: Compound concentration 1000.0 nM
Sequence of MAP kinase-interacting serine/threonine-protein kinase 1 (Homo sapiens) (Q9BUB5 whole entry, looked up): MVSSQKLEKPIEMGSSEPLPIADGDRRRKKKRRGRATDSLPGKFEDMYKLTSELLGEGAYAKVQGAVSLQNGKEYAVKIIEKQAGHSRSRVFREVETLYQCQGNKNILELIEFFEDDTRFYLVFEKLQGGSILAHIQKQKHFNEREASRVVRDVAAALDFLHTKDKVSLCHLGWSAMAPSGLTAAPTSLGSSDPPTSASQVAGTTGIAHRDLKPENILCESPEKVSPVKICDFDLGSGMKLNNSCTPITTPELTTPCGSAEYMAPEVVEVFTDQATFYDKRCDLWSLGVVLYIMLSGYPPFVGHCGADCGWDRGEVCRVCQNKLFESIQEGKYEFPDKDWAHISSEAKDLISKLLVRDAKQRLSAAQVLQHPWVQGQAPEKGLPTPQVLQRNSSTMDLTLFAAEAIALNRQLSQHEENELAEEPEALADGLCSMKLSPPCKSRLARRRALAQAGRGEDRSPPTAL

[17] = target: Mitogen-activated protein kinase 8 (Homo sapiens) (UniProt P45983); settings: Compound concentration 1000.0 nM
[18] = target: T4, MAP kinase-activated protein kinase 5 (Homo sapiens) (UniProt Q8IW41); settings: Compound concentration 1000.0 nM
T4 sequence (whole entry): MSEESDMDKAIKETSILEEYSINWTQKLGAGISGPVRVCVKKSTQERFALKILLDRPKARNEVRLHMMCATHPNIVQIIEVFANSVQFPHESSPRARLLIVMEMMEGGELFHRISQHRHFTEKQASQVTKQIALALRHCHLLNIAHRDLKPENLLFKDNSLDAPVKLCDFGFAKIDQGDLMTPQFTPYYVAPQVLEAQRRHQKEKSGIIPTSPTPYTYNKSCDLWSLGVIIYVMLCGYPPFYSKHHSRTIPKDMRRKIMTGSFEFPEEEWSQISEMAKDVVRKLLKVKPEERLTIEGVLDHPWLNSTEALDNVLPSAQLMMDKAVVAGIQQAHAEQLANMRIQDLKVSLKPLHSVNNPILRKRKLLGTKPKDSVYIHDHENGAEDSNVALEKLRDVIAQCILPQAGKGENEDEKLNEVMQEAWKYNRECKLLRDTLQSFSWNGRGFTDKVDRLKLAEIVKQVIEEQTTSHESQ

[19] = target: MAP kinase-interacting serine/threonine-protein kinase 2 (Homo sapiens) (UniProt Q9HBH9); settings: Compound concentration 1000.0 nM
Sequence of MAP kinase-interacting serine/threonine-protein kinase 2 (Homo sapiens) (Q9HBH9 whole entry, looked up): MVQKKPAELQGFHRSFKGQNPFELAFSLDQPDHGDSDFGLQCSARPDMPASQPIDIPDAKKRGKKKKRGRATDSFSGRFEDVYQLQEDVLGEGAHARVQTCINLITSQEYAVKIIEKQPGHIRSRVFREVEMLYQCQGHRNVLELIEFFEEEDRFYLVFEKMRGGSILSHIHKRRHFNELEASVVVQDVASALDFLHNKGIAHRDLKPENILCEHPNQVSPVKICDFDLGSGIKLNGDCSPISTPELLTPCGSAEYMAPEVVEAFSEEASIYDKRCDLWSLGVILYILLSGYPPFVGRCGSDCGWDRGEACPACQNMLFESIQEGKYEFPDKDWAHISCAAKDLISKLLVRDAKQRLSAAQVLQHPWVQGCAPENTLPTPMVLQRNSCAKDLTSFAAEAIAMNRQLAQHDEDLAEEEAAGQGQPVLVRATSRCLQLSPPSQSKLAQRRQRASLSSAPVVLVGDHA

Sequence of Rho-associated protein kinase 2 (Homo sapiens) (O75116 whole entry, looked up): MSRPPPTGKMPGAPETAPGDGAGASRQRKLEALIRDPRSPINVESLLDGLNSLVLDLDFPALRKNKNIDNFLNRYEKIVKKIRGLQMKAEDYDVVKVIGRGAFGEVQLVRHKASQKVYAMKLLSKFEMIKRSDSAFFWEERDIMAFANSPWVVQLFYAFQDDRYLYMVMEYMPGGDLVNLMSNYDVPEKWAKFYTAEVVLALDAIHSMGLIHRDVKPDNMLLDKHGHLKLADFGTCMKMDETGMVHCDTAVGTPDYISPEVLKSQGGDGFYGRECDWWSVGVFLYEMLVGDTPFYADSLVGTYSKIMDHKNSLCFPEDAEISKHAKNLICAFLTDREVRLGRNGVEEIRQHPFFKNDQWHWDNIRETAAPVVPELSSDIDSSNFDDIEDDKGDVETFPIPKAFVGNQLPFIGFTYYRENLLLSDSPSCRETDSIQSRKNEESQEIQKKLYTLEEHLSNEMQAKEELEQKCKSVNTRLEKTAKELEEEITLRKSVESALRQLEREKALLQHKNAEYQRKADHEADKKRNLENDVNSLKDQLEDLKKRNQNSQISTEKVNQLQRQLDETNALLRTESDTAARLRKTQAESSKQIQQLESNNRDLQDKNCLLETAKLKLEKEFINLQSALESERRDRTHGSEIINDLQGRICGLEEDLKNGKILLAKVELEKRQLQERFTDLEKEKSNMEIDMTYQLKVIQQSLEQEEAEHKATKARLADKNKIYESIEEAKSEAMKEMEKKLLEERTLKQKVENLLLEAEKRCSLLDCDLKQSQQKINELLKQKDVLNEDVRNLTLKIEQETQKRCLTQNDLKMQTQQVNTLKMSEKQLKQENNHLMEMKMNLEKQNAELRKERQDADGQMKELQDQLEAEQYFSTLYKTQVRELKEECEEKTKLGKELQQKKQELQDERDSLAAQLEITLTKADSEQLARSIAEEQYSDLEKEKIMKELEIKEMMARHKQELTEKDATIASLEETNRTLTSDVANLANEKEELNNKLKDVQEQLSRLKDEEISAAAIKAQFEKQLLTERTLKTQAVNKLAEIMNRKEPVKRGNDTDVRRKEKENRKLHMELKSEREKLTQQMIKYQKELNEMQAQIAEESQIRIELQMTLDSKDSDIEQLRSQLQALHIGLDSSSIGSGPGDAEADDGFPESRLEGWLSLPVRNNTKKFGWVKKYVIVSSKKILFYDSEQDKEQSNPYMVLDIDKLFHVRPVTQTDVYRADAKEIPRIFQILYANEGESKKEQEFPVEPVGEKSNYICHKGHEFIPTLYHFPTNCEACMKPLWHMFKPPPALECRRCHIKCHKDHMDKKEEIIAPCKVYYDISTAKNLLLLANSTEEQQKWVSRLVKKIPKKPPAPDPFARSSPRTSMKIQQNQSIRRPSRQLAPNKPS

CN(C)C(=O)Cn1cc(-c2nc(C3(c4ccc(-c5cnc(N)nc5)cc4)CC3)no2)cn1 [BI 0153]
inactive: residual activity [1] 90% | residual activity [2] 89% | residual activity [3] 100% | residual activity [4] 91% | residual activity [5] 100% | residual activity [6] 77% | inhibition [7] 9.74% | residual activity [8] 96% | residual activity [9] 100% | residual activity [10] 94% | residual activity [11] 95% | inhibition [12] -6.69% | residual activity [13] 100% | residual activity [14] 73% | residual activity [15] 89% | residual activity [16] 85% | residual activity [17] 78% | residual activity [18] 92% | residual activity [19] 94%

CN(C)C(=O)Cn1cc(-c2nc([C@@](C)(c3ccc(-c4cnc(N)nc4)cc3)C3CC3)no2)cn1 [BI 665915]
inactive: residual activity [1] 100% | residual activity [2] 100% | residual activity [3] 70% | residual activity [4] 100% | residual activity [5] 100% | residual activity [6] 77% | inhibition [7] 0.496% | residual activity [8] 89% | residual activity [9] 77% | residual activity [10] 57% | residual activity [11] 84% | inhibition [12] 4.55% | residual activity [13] 96% | residual activity [14] 93% | residual activity [15] 99% | residual activity [16] 85% | residual activity [17] 51% | residual activity [18] 94% | residual activity [19] 88%

From ChEMBL document CHEMBL4507276 (2021)
